The source of these data is patent EP0257993B1, “Nucleic acid fragment encoding herbicide resistant plant acetolactate synthase” (priority 1986, dated 1988).

Assay [1] concerns tobacco callus. As to conditions: Kanamycin, 50 mg/L. As for the experimental part:
For plant cell transformations, standard aseptic techniques for the manipulation of sterile media and axenic plant/bacterial cultures were followed, including the use of a laminar flow hood for all transfers. Recipes for media are given in Example VI. Potted tobacco plants for leaf disk infections were grown in a growth chamber maintained for a 12 hr. 24°C day, 12 hr, 20°C night cycle, with approximately 80% relative humidity, under mixed cool white fluorescent and incandescent lights. Tobacco leaf disk infections were carried out essentially by the method of Horsch et al. (1985) Science 227, 1229.
Young leaves, not fully expanded and approximately 4-6 inches in length, were harvested with a scalpel from approximately 4-6 week old tobacco plants (Nicotiana tabacum var. Xanthi). The leaves were surface sterilized for 30 minutes by submerging them in approximately 500 ml of a 10% Chlorox, 0.1% SDS solution and then rinsed 3 times with sterile deionized water. Leaf disks, 6 mm in diameter, were prepared from whole leaves using a sterile paper punch.
Leaf disks were inoculated by submerging them for several minutes in 20 ml of a 1:10 dilution of an overnight Agrobacterium culture carrying the plasmid GCKNT13. Agrobacterium cultures were started by inoculating 10 ml of YEB broth with a single bacterial colony removed form a R-agar plate. The culture was grown for approximately 17-20 hours in 18 mm glass culture tubes in a New Brunswick platform shaker maintained at 28°C.
After inoculation, the leaf disks were placed in petri dishes containing CN agar medium. The dishes were sealed with paraflm and incubated under mixed fluorescent and "Gro and Sho" plant light (General Electric) for 2-3 days in a culture room maintained at approximately 25°C.
[…] Cefotaxime was kept as a frozen 100 mg/ml stock solution and added aseptically (filter sterilized through a 0.45 µm filter) to the media after autoclaving. A fresh kanamycin stock (50 mg/ml) was made for each use and was filter sterilized into the autoclaved media.
Leaf disks were incubated under the growth conditions described above for 3 weeks and then transferred to fresh media of the same composition.
Root formation on selective and non-selective media was recorded within 3 weeks.
Callus growth on selective and non-selective media was recorded within 3 weeks.

The subject of assay [2] is Brassica napus callus tissue. As to the kind of experiment: Kanamycin selection of Brassica napus hypocotyl explants. Type of assay: cell-based, Brassica napus cv. Olga. As to conditions: of 100 wound sites; kanamycin 100 mg/L.
The test system of a further assay is melon callus. Briefly: Kanamycin selection of melon cotyledon explants. It counts as cell-based, Cucumis melo cv. Amarillo Oro. As to conditions: kanamycin at 100µm/l.
For a further assay, the system named is calli of B. vulgaris. As to the kind of experiment: Chlorsulfuron resistance of sugarbeet calli. Type of assay: cell-based, Beta vulgaris 87193. From the text:
Selection for transformed plant cells was applied as follows. […] The number of resistant colonies was counted after 20-30 days. More than one may be observed at each wound. Transformants were excised as follows. Callus was removed from the wound/explant with a surgical blade and cultured independently on fresh selective media. Some Agrobacterium can escape from counter-selection. Additional washes in cefotaxime containing liquid media are possible, as is repeated transfer to cefotaxime containing agar solidified plates. […]

A further assay concerns Brassica napus. As to the kind of experiment: Brassica napus plants sprayed with chlorsulfuron. It counts as in vivo, Brassica napus cv. Olga.
Assay [3] has as its system ALS. As to the kind of experiment: ALS assay, wild type Brassica napus. It counts as biochemical. As for the experimental part:
Keep on ice. • 2. […] 16K rpm, 4°C. • 4. […] Incubate on ice for 30 minutes. • 6. […] Decant supernatant. • 7. Resuspend pellet in 1 ml cold column buffer. • 8. […] Let this run through column. • 9. Elute proteins with 2X volume of extract loaded. […] Incubate reaction for 1 hour, 30°C. • 12. […] Spin in microfuge 5 minutes. • 13. […] Read at OD 530.

Assay [4] has as its system tobacco callus. Briefly: Growth of tobacco mutant callus (C3, S4, Hra) on herbicide. It counts as cell-based, Nicotiana tabacum var. Xanthi. As to conditions: Hra cell line. As for the experimental part: (§1) Callus cultures of sensitive tobacco (Nicotiana tabacum var. Xanthi) were exposed to sulfometuron methyl at 2 ppb according to the method described by Chaleff, U.S. 4,443,971. […] Plants were regenerated from Hra callus cultures. […] ALS activity in extracts of leaves of wild type and homozygous Hra mutant tobacco plants was determined.

Assay [5] deals with ALS. Type of assay: biochemical, Nicotiana tabacum. As to conditions: C3 and S4 lines. As to the method: as §1

Where two headings read alike, the source gives them in different places.

Regarding `NC[C@H]1O[C@H](O[C@H]2[C@H](O)[C@@H](O[C@H]3O[C@H](CO)[C@@H](O)[C@H](N)[C@H]3O)[C@H](N)C[C@@H]2N)[C@H](O)[C@@H](O)[C@@H]1O` [Kanamycin], the “Number of transformed shoot explants producing callus on selective and non-selective media” value in the assay with tobacco callus [1] (EXP. #1, GV3850) is recorded as 0/10; in the assay with tobacco callus [1] (EXP. #1, GVKK) it was 8/13; in the assay on tobacco callus [1] (EXP. #1, GVKNT13), 53/62; in the assay on tobacco callus [1] (Exp. #2, GV3850) it was 0/25; in the assay on tobacco callus [1] (Exp. #2, GVKK) it was 16/23; in the assay on tobacco callus [1] (Exp. #2, GVKNT13), 81/102. Besides, the “wound sites that developed callus tissue resistant to kanamycin” value in assay [2] was found to be 20. Moreover, the “explants that developed callus resistant to kanamycin” value in the assay with melon callus is given as “Approximately 70%”.

Regarding `COc1nc(C)nc(NC(=O)NS(=O)(=O)c2ccccc2Cl)n1` [chlorsulfuron], the “level of chlorsulfuron resistance in calli of B. vulgaris” value in the assay on calli of B. vulgaris (87193/0 (untransformed), Chlorsulfuron 10 ppb) is on record as 0/15; in the assay on calli of B. vulgaris (87193/0 (untransformed), Chlorsulfuron 30 ppb), 0/15; in the assay with calli of B. vulgaris (87193/152 (transformed, pAGS152), Chlorsulfuron 10 ppb), 15/15; with calli of B. vulgaris (87193/152 (transformed, pAGS152), Chlorsulfuron 30 ppb), 15/15; in the assay with calli of B. vulgaris (87193/152 (transformed, pAGS152), Chlorsulfuron 100 ppb), 15/15; in the assay with calli of B. vulgaris (87193/152 (transformed, pAGS152), Chlorsulfuron 300 ppb), 15/15. The “level of chlorsulfuron resistance in calli of B. vulgaris” value in the assay on calli of B. vulgaris (87193/152 (transformed, pAGS152), Chlorsulfuron 1000 ppb) was 15/15; in the assay on calli of B. vulgaris (87193/152 (transformed, pAGS152), Chlorsulfuron 3000 ppb) it was 3/15; with calli of B. vulgaris (87193/152 (transformed, pAGS152), Chlorsulfuron 10000 ppb), 0/15. The “growth of plants sprayed with chlorsulfuron” value (shortened to “growth of plants sprayed”) is recorded as “++” with Brassica napus (Ro #1, 0.3 ppm); “++” in the assay on Brassica napus (Ro #1, 1 ppm); “++” with Brassica napus (Ro #1, 3 ppm); “+” in the assay with Brassica napus (Ro #1, 10 ppm); “++” in the assay on Brassica napus (Ro #2, 0.3 ppm); “+” in the assay with Brassica napus (Ro #2, 1 ppm). Besides, the “growth of plants sprayed” value in the assay on Brassica napus (Ro #2, 3 ppm) is “-”; in the assay on Brassica napus (Ro #2, 10 ppm), “-”; in the assay with Brassica napus (Ro #3, 0.3 ppm) it was “++”; in the assay with Brassica napus (Ro #3, 1 ppm), “+”; in the assay on Brassica napus (Ro #3, 3 ppm) it was “+”; with Brassica napus (Ro #3, 10 ppm), “-”. Further, the “growth of plants sprayed” value is “++” in the assay on Brassica napus (Ro #4, 0.3 ppm); “+” in the assay on Brassica napus (Ro #4, 1 ppm); “-” with Brassica napus (Ro #4, 3 ppm); “-” in the assay with Brassica napus (Ro #4, 10 ppm); “+++” with Brassica napus (Ro #5, 0.3 ppm); “++” in the assay on Brassica napus (Ro #5, 1 ppm). For the same molecule, the “growth of plants sprayed” value is “++” with Brassica napus (Ro #5, 3 ppm); “+” in the assay on Brassica napus (Ro #5, 10 ppm); “++” in the assay on Brassica napus (untransformed, 0.3 ppm); “+” with Brassica napus (untransformed, 1 ppm); “-” with Brassica napus (untransformed, 3 ppm); “-” with Brassica napus (untransformed, 10 ppm). The “Percent Uninhibited ALS Activity” value was determined as 86.6% in the assay on ALS [3] (1ppb), 28.2% with ALS [3] (10ppb), 10.1% in the assay with ALS [3] (100ppb) and 7.6% with ALS [3] (1000ppb). Also, the “cross resistance of cell line” value in the assay on tobacco callus [4] is “cross resistant”. For the same molecule, the “resistance of ALS enzyme activity compared with ALS from wild type” value in the assay on ALS [5] is reported as “one-hundred fold”.
